Assay: xn = mol fraction of the nth substance listed
Conditions: Fluid (supercritical or subcritical phases), vibrating tube

CCCCCO [pentan-1-ol] + O=C=O
Conditions	mass density [kg/m3]
342.87 K, 20033 kPa, x2 = 0.4651	814.31
342.87 K, 21025 kPa, x2 = 0.4651	815.82
342.87 K, 21037 kPa, x2 = 0.3624	811.12
342.87 K, 21039 kPa, x2 = 0.7274	812.39
342.87 K, 21983 kPa, x2 = 0.4651	817.26
342.87 K, 21990 kPa, x2 = 0.3624	812.11
342.87 K, 22001 kPa, x2 = 0.7274	815.49
342.87 K, 23014 kPa, x2 = 0.4651	818.77
342.87 K, 23015 kPa, x2 = 0.7274	818.69
342.87 K, 23033 kPa, x2 = 0.3624	813.18
342.87 K, 24005 kPa, x2 = 0.3624	814.16
342.87 K, 24023 kPa, x2 = 0.4651	820.23
342.87 K, 24099 kPa, x2 = 0.7274	821.95
342.87 K, 25028 kPa, x2 = 0.3624	815.18
342.88 K, 3034 kPa, x2 = 0.0816	781.33
342.88 K, 4000 kPa, x2 = 0.0816	782.24
342.88 K, 4969 kPa, x2 = 0.0816	783.19
342.88 K, 5981 kPa, x2 = 0.0816	784.14
342.88 K, 7023 kPa, x2 = 0.0816	785.12
342.88 K, 8012 kPa, x2 = 0.0816	786.04
342.88 K, 9030 kPa, x2 = 0.0816	786.97
342.88 K, 10026 kPa, x2 = 0.0816	787.86
342.88 K, 10992 kPa, x2 = 0.0816	788.72
342.88 K, 11981 kPa, x2 = 0.0816	789.59
342.88 K, 13062 kPa, x2 = 0.0816	790.54
342.88 K, 14001 kPa, x2 = 0.9216	654.38
342.88 K, 14013 kPa, x2 = 0.0816	791.33
342.88 K, 15014 kPa, x2 = 0.9216	679.88
342.88 K, 15025 kPa, x2 = 0.0816	792.19
342.88 K, 15995 kPa, x2 = 0.0816	793.03
342.88 K, 16009 kPa, x2 = 0.9216	699.02
342.88 K, 16999 kPa, x2 = 0.0816	793.86
342.88 K, 17032 kPa, x2 = 0.9216	715.18
342.88 K, 18002 kPa, x2 = 0.9216	728.34
342.88 K, 18009 kPa, x2 = 0.0816	794.69
342.88 K, 19029 kPa, x2 = 0.0816	795.51
342.88 K, 19057 kPa, x2 = 0.9216	740.82
342.88 K, 19987 kPa, x2 = 0.0816	796.28
342.88 K, 19996 kPa, x2 = 0.9216	750.81
342.88 K, 21039 kPa, x2 = 0.0816	797.11
342.88 K, 21039 kPa, x2 = 0.9216	760.88
342.88 K, 21996 kPa, x2 = 0.0816	797.87
342.88 K, 22026 kPa, x2 = 0.9216	769.6
342.88 K, 22991 kPa, x2 = 0.0816	798.65
342.88 K, 24056 kPa, x2 = 0.0816	799.48
342.88 K, 25041 kPa, x2 = 0.0816	800.25
342.89 K, 14024 kPa, x2 = 0.8573	720.89
342.89 K, 15020 kPa, x2 = 0.8573	735.53
342.89 K, 16007 kPa, x2 = 0.8573	747
342.89 K, 17031 kPa, x2 = 0.8573	757.08
342.89 K, 18025 kPa, x2 = 0.8573	765.71
342.89 K, 19016 kPa, x2 = 0.8573	773.47
342.89 K, 20036 kPa, x2 = 0.8573	780.77
342.89 K, 21016 kPa, x2 = 0.8573	787.25
342.89 K, 21989 kPa, x2 = 0.8573	793.31
342.89 K, 23049 kPa, x2 = 0.8573	799.42
342.89 K, 24035 kPa, x2 = 0.8573	804.78
342.89 K, 24945 kPa, x2 = 0.8573	809.51
342.95 K, 13102 kPa, x2 = 0.6054	801.79
342.95 K, 14086 kPa, x2 = 0.6054	804.2
342.95 K, 15021 kPa, x2 = 0.6054	806.46
342.95 K, 16051 kPa, x2 = 0.6054	808.84
342.95 K, 17053 kPa, x2 = 0.6054	811.1
342.95 K, 18061 kPa, x2 = 0.6054	813.31
342.95 K, 19049 kPa, x2 = 0.6054	815.42
342.95 K, 20084 kPa, x2 = 0.6054	817.54
342.95 K, 21075 kPa, x2 = 0.6054	819.56
342.95 K, 22070 kPa, x2 = 0.6054	821.54
342.95 K, 23069 kPa, x2 = 0.6054	823.48
342.95 K, 24068 kPa, x2 = 0.6054	825.37
342.95 K, 25106 kPa, x2 = 0.6054	827.29
342.96 K, 7006 kPa, x2 = 0.1347	785.93
342.96 K, 8027 kPa, x2 = 0.1347	786.83
342.96 K, 9036 kPa, x2 = 0.1347	787.79
342.96 K, 10053 kPa, x2 = 0.1347	788.74
342.96 K, 11003 kPa, x2 = 0.1347	789.61
342.96 K, 12025 kPa, x2 = 0.1347	790.55
342.96 K, 13042 kPa, x2 = 0.1347	791.48
342.96 K, 14006 kPa, x2 = 0.1347	792.33
342.96 K, 15009 kPa, x2 = 0.1347	793.22
342.96 K, 16036 kPa, x2 = 0.1347	794.12
342.96 K, 17009 kPa, x2 = 0.1347	794.98
342.96 K, 18011 kPa, x2 = 0.1347	795.84
342.96 K, 19019 kPa, x2 = 0.1347	796.7
342.96 K, 20016 kPa, x2 = 0.1347	797.55
342.96 K, 20998 kPa, x2 = 0.1347	798.37
342.96 K, 22010 kPa, x2 = 0.1347	799.2
342.96 K, 23002 kPa, x2 = 0.1347	800.03
342.96 K, 24085 kPa, x2 = 0.1347	800.92
342.96 K, 25038 kPa, x2 = 0.1347	801.69
352.71 K, 508 kPa, x2 = 0	768.15
352.71 K, 1011 kPa, x2 = 0	768.66
352.71 K, 1995 kPa, x2 = 0	769.61
352.71 K, 3014 kPa, x2 = 0	770.57
352.71 K, 3998 kPa, x2 = 0	771.49
352.71 K, 5022 kPa, x2 = 0	772.45
352.71 K, 6012 kPa, x2 = 0	773.35
352.71 K, 7006 kPa, x2 = 0	774.26
352.71 K, 8024 kPa, x2 = 0	775.17
352.71 K, 9005 kPa, x2 = 0	776.05
352.71 K, 10016 kPa, x2 = 0	776.94
352.71 K, 11026 kPa, x2 = 0	777.81
352.71 K, 12001 kPa, x2 = 0	778.65
352.71 K, 13002 kPa, x2 = 0	779.5
352.71 K, 14026 kPa, x2 = 0	780.35
352.71 K, 15000 kPa, x2 = 0	781.18
352.71 K, 16005 kPa, x2 = 0	781.98
352.71 K, 17023 kPa, x2 = 0	782.81
352.71 K, 18003 kPa, x2 = 0	783.59
352.71 K, 19049 kPa, x2 = 0	784.43
352.71 K, 20035 kPa, x2 = 0	785.2
352.71 K, 21002 kPa, x2 = 0	785.96
352.71 K, 21995 kPa, x2 = 0	786.73
352.71 K, 23020 kPa, x2 = 0	787.52
352.71 K, 24045 kPa, x2 = 0	788.32
352.71 K, 25009 kPa, x2 = 0	789.05
352.73 K, 17393 kPa, x2 = 0.9757	574.15
352.73 K, 18036 kPa, x2 = 0.9757	591.88
352.73 K, 19032 kPa, x2 = 0.9757	616.27
352.73 K, 20013 kPa, x2 = 0.9757	637.17
352.73 K, 21057 kPa, x2 = 0.9757	656.66
352.73 K, 22011 kPa, x2 = 0.9757	672.48
352.73 K, 23064 kPa, x2 = 0.9757	688.28
352.73 K, 24053 kPa, x2 = 0.9757	701.67
